Data from patent US8232273B2, “Heterocyclic compounds and methods of use” (Genentech, Inc., priority 2008, dated 2012).

target: Bcl-xL (GST-Bcl-xL) (Homo sapiens, UniProt Q07817); test: TR-FRET binding assay, competition with F-Bak for the Bcl-xL binding site; details: values listed in the order of Table 1, read-out: TR-FRET assay results (Ki), Bcl-xL
Protocol: The measurement of competition of compounds of the invention with F-Bak for a Bcl-2 family protein (Bcl-xL) binding site using a Time Resolved Fluorescence Resonance Energy Transfer (TR-FRET) binding assay:
Test compounds were serially diluted in DMSO starting at 50 μM (2× starting concentration; 10% DMSO) and 10 μt transferred into a 384-well plate.
The samples are then mixed on a shaker for 1 minute then incubated for an additional 2 hours at room temperature. For each assay plate, a probe/antibody and protein/antibody/probe mixture were included as a negative and a positive control, respectively. Fluorescence was measured on the Envision (Perkin Elmer) using a 340/35 nm excitation filter and 520/525 (F-Bak) and 495/510 nm (Tb-labeled anti-his antibody) emission filters. Dissociation constants (Ki) were determined using Wang's equation (see, Wang, Z. X. An exact mathematical expression for describing competitive binding of two different ligands to a protein molecule. FEBS Lett. 1995 360:111-114). The TR-FRET assay can be performed in the presence of varying concentrations of human serum (HS) or fetal bovine serum (FBS).

Sequence of Bcl-xL (GST-Bcl-xL) (Q07817 whole entry, species assumed): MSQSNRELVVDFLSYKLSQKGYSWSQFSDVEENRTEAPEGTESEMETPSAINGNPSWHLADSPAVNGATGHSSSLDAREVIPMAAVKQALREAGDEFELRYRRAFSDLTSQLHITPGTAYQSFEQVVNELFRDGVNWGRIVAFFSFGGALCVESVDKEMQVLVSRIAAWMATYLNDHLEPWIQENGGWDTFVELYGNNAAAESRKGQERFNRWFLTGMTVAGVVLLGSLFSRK

| Structure (SMILES) | Ki |
| --- | --- |
| CN1CCN(Cc2ccc(OCCCc3sc(N4CCc5cccc(C(=O)Nc6nc7ccccc7s6)c5C4)nc3C(=O)O)cc2)CC1 [Example 89, 2-[8-(Benzothiazol-2-ylcarbamoyl)-3,4-dihydro-1H-isoquinolin-2-yl]-5-{3-[4-(4-methyl-piperazin-1-ylmethyl)-phenoxy]-propyl}-thiazole-4-carboxylic acid] | 0.1 nM |
| N#Cc1cccnc1-c1ccc(OCCCc2sc(N3CCc4cccc(C(=O)Nc5nc6ccccc6s5)c4C3)nc2C(=O)O)cc1 [Example 56, 2-[8-(Benzothiazol-2-ylcarbamoyl)-3,4-dihydro-1H-isoquinolin-2-yl]-5-{3-[4-(3-cyano-pyridin-2-yl)-phenoxy]-propyl}-thiazole-4-carboxylic acid] | 0.05 nM |
| N#Cc1c(-c2cccc(OCCCc3sc(N4CCc5cccc(C(=O)Nc6nc7ccccc7s6)c5C4)nc3C(=O)O)c2)n[nH]c1N [Example 39, 5-(3-(3-(5-amino-4-cyano-1H-pyrazol-3-yl)phenoxy)propyl)-2-(8-(benzo[d]thiazol-2-ylcarbamoyl)-3,4-dihydroisoquinolin-2(1H)-yl)thiazole-4-carboxylic acid] | 0.2 nM |
| CN1CCN(CCCN(CCCc2sc(N3CCc4cccc(C(=O)Nc5nc6ccccc6s5)c4C3)nc2C(=O)O)c2ncnc3c2cnn3-c2ccc(O)cc2)CC1 [Example 91, 2-(8-(benzo[d]thiazol-2-ylcarbamoyl)-3,4-dihydroisoquinolin-2(1H)-yl)-5-(3-((1-(4-hydroxyphenyl)-1H-pyrazolo[3,4-d]pyrimidin-4-yl)(3-(4-methylpiperazin-1-yl)propyl)amino)propyl)thiazole-4-carboxylic acid] | 0.7 nM |
| N#Cc1cscc1-c1ccc(O)c(Cc2sc(N3CCc4cccc(C(=O)Nc5nc6ccccc6s5)c4C3)nc2C(=O)O)c1 [Example 60, 2-[8-(Benzothiazol-2-ylcarbamoyl)-3,4-dihydro-1H-isoquinolin-2-yl]-5-[5-(4-cyano-thiophen-3-yl)-2-hydroxy-benzyl]-thiazole-4-carboxylic acid] | 176 nM |
| O=C(Nc1nc2ccccc2s1)c1cccc2c1CN(c1nc(C(=O)O)c(CCCOc3cc(F)c(NCCN4CCOCC4)cc3F)s1)CC2 [Example 115, 2-(8-(benzo[d]thiazol-2-ylcarbamoyl)-3,4-dihydroisoquinolin-2(1H)-yl)-5-(3-(2,5-difluoro-4-(2-morpholinoethylamino)phenoxy)propyl)thiazole-4-carboxylic acid] | 0.05 nM |
| CN(C)CC#Cc1ccc(OCCCc2sc(N3CCc4cccc(C(=O)Nc5nc6ccccc6s5)c4C3)nc2C(=O)NS(C)(=O)=O)c(F)c1 [Compound 142, 2-(8-(benzo[d]thiazol-2-ylcarbamoyl)-3,4-dihydroisoquinolin-2(1H)-yl)-5-(3-(4-(3-(dimethylamino)prop-1-ynyl)-2-fluorophenoxy)propyl)-N-(methylsulfonyl) thiazole-4-carboxamide] | 0.088 nM |
| Cn1cnnc1-c1ccc(OCCCc2sc(N3CCc4cccc(C(=O)Nc5nc6ccccc6s5)c4C3)nc2C(=O)O)cc1 [Example 68, 2-(8-(benzo[d]thiazol-2-ylcarbamoyl)-3,4-dihydroisoquinolin-2(1H)-yl)-5-(3-(4-(4-methyl-4H-1,2,4-triazol-3-yl)phenoxy)propyl)thiazole-4-carboxylic acid] | 0.2 nM |
| CC(=O)N1CCN(c2ccc(OCCCc3sc(N4CCc5cccc(C(=O)Nc6nc7ccccc7s6)c5C4)nc3C(=O)O)cc2)CC1 [Example 61, 5-{3-[4-(4-Acetyl-piperazin-1-yl)-phenoxy]-propyl}-2-[8-(benzothiazol-2-ylcarbamoyl)-3,4-dihydro-1H-isoquinolin-2-yl]-thiazole-4-carboxylic acid] | 0.3 nM |

same assay, conditions: with 1% human serum (HS)

| Structure (SMILES) | Ki |
| --- | --- |
| CN(C)CC#Cc1ccc(OCCCc2sc(N3CCc4cccc(C(=O)Nc5nc6ccccc6s5)c4C3)nc2C(=O)O)cn1 [Example 57, 2-(8-(benzo[d]thiazol-2-ylcarbamoyl)-3,4-dihydroisoquinolin-2(1H)-yl)-5-(3-(6-(3-(dimethylamino)prop-1-ynyl)pyridin-3-yloxy)propyl)thiazole-4-carboxylic acid] | 0.07 nM |
